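Tested at 5 concentrations; 48 h exposure; 96-well plates; endpoints linearly interpolated, else capped at highest concentration. The concentration for 50% growth inhibition is given as GI50.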 Calls of active or inactive are those of the source. Cut-off read from the data, not from the text of the source: active = GI50 up to about 1.1 µM and inactive = higher.

The text below walks through data of ChEMBL document CHEMBL1201862, “PubChem BioAssay data set” (2004).

Experiment in all cases: NCI anticancer screen, dose series, 48 h
The subject of experiment [1] is NCI-H226.
Experiment [2] has as its system IGROV-1.
In experiment [3] the test system is CAKI-1.
Experiment [4] relates to A549.
Experiment [5] has as its system KM12.
The subject of experiment [6] is A498.
The test system of experiment [7] is RXF 393.
In experiment [8] the test system is HOP-92.
Experiment [9] concerns OVCAR-4.
Experiment [10] has as its system SK-MEL-5.
Experiment [11] concerns NCI/ADR-RES.
The subject of experiment [12] is MOLT-4.
In experiment [13] the test system is SF-268.
The test system of experiment [14] is UACC-257.
The test system of experiment [15] is OVCAR-3.
The subject of experiment [16] is ACHN.
In experiment [17] the test system is SW-620.
For experiment [18], the system named is HT-29.
In experiment [19] the test system is MDA-N.

Consider `O=C(OC12CC3CC(CC(C3)C1)C2)c1ccc(NCc2cc(O)ccc2O)cc1`, for which the GI50 is 1.33 µM (inactive) in experiment [1]; 0.109 µM (active) in experiment [2]; 0.301 µM (active) in [3]; 3.97 µM (inactive) in experiment [4]; 1.16 µM (inactive) in [5]; 1.87 µM (inactive) in [6]. Moreover, the GI50 in experiment [7] was 0.288 µM (active); in experiment [8] it was 0.34 µM (active); in [9] it was 0.433 µM (active); in experiment [10], 1.24 µM (inactive); in experiment [11], 0.637 µM (active); in experiment [12], 0.0944 µM (active). For the same molecule, the GI50 in experiment [13] was 1.75 µM (inactive); in experiment [14], 1.24 µM (inactive); in experiment [15], 0.743 µM (active); in [16], 0.968 µM (active); in [17], 1.67 µM (inactive); in [18] it was 1.48 µM (inactive). Further, the GI50 in experiment [19] was 1.32 µM (inactive).

Consider `Cc1ccc(C)c(COCCOCn2c(=O)[nH]c(=O)c3cc(Br)ccc32)c1`, for which the GI50 in experiment [1] is > 100 µM (inactive); in experiment [2], 60.3 µM (inactive); in experiment [3] it was 81.1 µM (inactive); in [4] it was > 100 µM (inactive); in [5], > 100 µM (inactive); in experiment [6] it was > 100 µM (inactive). In addition, the GI50 in experiment [7] is > 100 µM (inactive); in experiment [8], > 100 µM (inactive); in experiment [9] it was 47.8 µM (inactive); in experiment [11] it was > 100 µM (inactive); in [12], > 100 µM (inactive); in [13] it was 52.6 µM (inactive). The GI50 in experiment [14] is 72.1 µM (inactive); in experiment [15], > 100 µM (inactive); in experiment [16], > 100 µM (inactive); in experiment [17] it was > 100 µM (inactive); in experiment [18] it was 98.2 µM (inactive); in [19], > 100 µM (inactive).

Turning to `CC(=O)N1CN2C(=O)CCC2c2cc(C)ccc21` (configuration not stated), the GI50 in experiment [1], in experiment [2], in [3], in experiment [4], in experiment [5] and in experiment [6] was > 100 µM (inactive) throughout. The GI50 in experiment [7], in experiment [8], in [9], in [10], in experiment [11] and in experiment [12] was > 100 µM (inactive) each time. Besides, the GI50 in experiment [13], in [14], in experiment [15], in [16], in [17] and in experiment [18] was > 100 µM (inactive) throughout. In addition, the GI50 in experiment [19] was > 100 µM (inactive).

As for `C=C(C)C1CC2=C(C(=O)OC)C=C(O2)C(C(=C)C)[C@@H]2OC(=O)/C(=C\C1O)[C@H]2N(C)C` (some centres not stated), the GI50 in experiment [1] was 7.69 µM (inactive); in experiment [2], 6.04 µM (inactive); in experiment [3] it was 7.71 µM (inactive); in experiment [4] it was 13.9 µM (inactive); in experiment [5] it was 13.7 µM (inactive); in experiment [6], 17.1 µM (inactive). For the same molecule, the GI50 is 5.02 µM (inactive) in [7]; 6.53 µM (inactive) in experiment [8]; 5.64 µM (inactive) in experiment [9]; 14.2 µM (inactive) in experiment [10]; 8.07 µM (inactive) in experiment [11]; 17 µM (inactive) in experiment [13]. Further, the GI50 is 20.9 µM (inactive) in experiment [14]; 12.6 µM (inactive) in [15]; 11.7 µM (inactive) in experiment [16]; 7.33 µM (inactive) in experiment [17]; 15 µM (inactive) in experiment [18]; 11.4 µM (inactive) in [19].

As to `CCC(c1ccc(N(C)C)cc1)C1NC(=S)NC1=O` (configuration not stated), the GI50 in experiment [1] is 87.3 µM (inactive); in experiment [2] it was 58.3 µM (inactive); in experiment [3] it was > 100 µM (inactive); in experiment [4], > 100 µM (inactive); in experiment [5], 62.7 µM (inactive); in experiment [6], 50.6 µM (inactive). The GI50 in [7] is > 100 µM (inactive); in experiment [8], > 100 µM (inactive); in [9] it was 62.7 µM (inactive); in [10], 37.8 µM (inactive); in [11] it was > 100 µM (inactive); in experiment [12] it was 30.7 µM (inactive). Also, the GI50 was > 100 µM (inactive) in experiment [13]; > 100 µM (inactive) in experiment [14]; > 100 µM (inactive) in experiment [16]; 68.9 µM (inactive) in experiment [17]; 57.1 µM (inactive) in experiment [18]; 59.7 µM (inactive) in [19].

In the case of `CC(C)[N+]([O-])(CCCNc1c2ccccc2nc2cccc([N+](=O)[O-])c12)C(C)C`, the GI50 in experiment [1] was < 0.0456 µM (active); in experiment [3], 0.492 µM (active); in experiment [4] it was < 0.0282 µM (active); in experiment [5], 0.065 µM (active); in experiment [6], < 0.0452 µM (active); in experiment [7] it was 0.172 µM (active). In addition, the GI50 in [8] was < 0.0355 µM (active); in experiment [9], 0.153 µM (active); in [10] it was < 0.0167 µM (active); in [11], 0.581 µM (active); in experiment [12], < 0.0181 µM (active); in experiment [14], 0.064 µM (active). The GI50 was < 0.0441 µM (active) in [16], < 0.0258 µM (active) in experiment [17], < 0.0202 µM (active) in experiment [18] and < 0.0342 µM (active) in [19].

With `O=C(/C=C/c1ccc2c(c1)OCO2)c1ccc(O)cc1`, the GI50 in experiment [1] was 18.5 µM (inactive); in experiment [2], 15.1 µM (inactive); in experiment [3], 15.2 µM (inactive); in experiment [4], 17.4 µM (inactive); in experiment [6] it was 23.4 µM (inactive); in experiment [7], 15.6 µM (inactive). In addition, the GI50 in [8] was 14.5 µM (inactive); in experiment [9] it was 18.4 µM (inactive); in experiment [10], 15.6 µM (inactive); in experiment [11] it was 1.76 µM (inactive); in experiment [13] it was 45.9 µM (inactive); in [14], 15.3 µM (inactive). Further, the GI50 was 15.5 µM (inactive) in experiment [15]; 20.2 µM (inactive) in [16]; 12.1 µM (inactive) in experiment [17]; 15.4 µM (inactive) in experiment [18]; 10.8 µM (inactive) in [19].

With `CSc1nc2c(c(=O)n1C)N=C(c1ccccc1)[C@H](C(CC(=O)c1ccccc1)c1ccccc1)C(c1ccccc1)N2` (some centres not stated), the GI50 in experiment [1] was > 100 µM (inactive); in [2], > 100 µM (inactive); in experiment [3], > 100 µM (inactive); in [4], 31.8 µM (inactive); in [5], 14.7 µM (inactive); in experiment [6], > 100 µM (inactive). In addition, the GI50 in [7] was 65.6 µM (inactive); in experiment [8], > 100 µM (inactive); in experiment [9] it was 23.6 µM (inactive); in experiment [10] it was > 100 µM (inactive); in experiment [11], 76.6 µM (inactive); in experiment [12], 5.94 µM (inactive). The GI50 in experiment [14] was > 100 µM (inactive); in experiment [15] it was > 100 µM (inactive); in [16], > 100 µM (inactive); in [17] it was 26.1 µM (inactive); in [18] it was > 100 µM (inactive); in experiment [19] it was > 100 µM (inactive).

`CC(C)(CNC(=O)/C(Cl)=C(/Cl)C(=O)O)CNC(=O)/C(Cl)=C(/Cl)C(=O)O`: the GI50 in [1], in experiment [2], in [3], in experiment [4], in experiment [5] and in experiment [6] was > 100 µM (inactive) in each case. In addition, the GI50 in experiment [7] is > 100 µM (inactive); in experiment [8], 78.3 µM (inactive); in [9], > 100 µM (inactive); in experiment [10], > 100 µM (inactive); in experiment [11], > 100 µM (inactive); in experiment [12], 30.9 µM (inactive). Also, the GI50 was > 100 µM (inactive) in [14]; > 100 µM (inactive) in experiment [15]; 28.4 µM (inactive) in [16]; 40.6 µM (inactive) in experiment [17]; 48.5 µM (inactive) in experiment [18]; > 100 µM (inactive) in [19].

On to `CSC(Cc1ccc2c(c1)Sc1ccccc1O2)=[N+]1CCOCC1`, for which the GI50 in experiment [1] is 55.8 µM (inactive); in experiment [2] it was 48.6 µM (inactive); in experiment [3], > 100 µM (inactive); in experiment [4], 63.8 µM (inactive); in experiment [5] it was 51.4 µM (inactive); in experiment [6] it was 46.5 µM (inactive). Moreover, the GI50 was 37.6 µM (inactive) in experiment [7]; 48.5 µM (inactive) in experiment [8]; > 100 µM (inactive) in experiment [9]; 56.8 µM (inactive) in experiment [11]; 35.7 µM (inactive) in experiment [12]; 61.2 µM (inactive) in [13]. For the same molecule, the GI50 in [14] is 43 µM (inactive); in experiment [15] it was 52.6 µM (inactive); in experiment [16] it was 58.3 µM (inactive); in experiment [17], > 100 µM (inactive); in [18], 43.9 µM (inactive); in experiment [19], 54.5 µM (inactive).

As to `C=Cc1nc(C#N)c(N)o1`, the GI50 in experiment [1], in [2], in [3], in [4], in experiment [5] and in [6] was > 100 µM (inactive) in each case. For the same molecule, the GI50 in experiment [7], in experiment [8], in experiment [9], in experiment [10], in experiment [11] and in [12] was > 100 µM (inactive) each time. The GI50 in experiment [13], in experiment [14], in experiment [15], in experiment [17], in experiment [18] and in experiment [19] was > 100 µM (inactive) in each case.
